Values joined by “and” are separate entries in the source; they are usually repeats but may differ in a detail not shown here. Equal values may be shown once. Inconclusive results and toxic doses are left out.
Test system: L1210 leukemia ip in BDF1 mice, survival T/C
Test: NCI In Vivo Anticancer Drug Screen. Data for tumor model L1210 Leukemia (intraperitoneal) in B6D2F1 (BDF1) mice
Details: higher = longer survival
How it was run: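 Read-out is survival time, reported as the treated-group measurement over the vehicle-control measurement.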

[1] = endpoint: mean survival time, dose: 100.0 mg/kg/injection, schedule: Q04DX003 (ip), vehicle: Klucel (hydroxypropylcellulose) (HPC)
[2] = endpoint: mean survival time, dose: 100.0 mg/kg/injection, schedule: Q04DX003 (ip), vehicle: saline
[3] = endpoint: mean survival time, dose: 200.0 mg/kg/injection, schedule: Q04DX003 (ip), vehicle: Klucel (hydroxypropylcellulose) (HPC)
[4] = endpoint: mean survival time, dose: 200.0 mg/kg/injection, schedule: Q04DX003 (ip), vehicle: saline
[5] = endpoint: mean survival time, dose: 400.0 mg/kg/injection, schedule: Q04DX003 (ip), vehicle: saline
[6] = endpoint: mean survival time, dose: 100.0 mg/kg/injection, schedule: Q01DX001 (ip), vehicle: saline
[7] = endpoint: mean survival time, dose: 200.0 mg/kg/injection, schedule: Q01DX001 (ip), vehicle: saline
[8] = endpoint: mean survival time, dose: 400.0 mg/kg/injection, schedule: Q01DX001 (ip), vehicle: saline
[9] = endpoint: mean survival time, dose: 100.0 mg/kg/injection, schedule: Q04DX003 (ip), vehicle: saline with Tween-80
[10] = endpoint: mean survival time, dose: 200.0 mg/kg/injection, schedule: Q04DX003 (ip), vehicle: saline with Tween-80
[11] = endpoint: mean survival time, dose: 400.0 mg/kg/injection, schedule: Q04DX003 (ip), vehicle: saline with Tween-80

With `COC(=O)C1(N)CCCC1` the T/C (endpoint: mean survival time, dose: 11.0 mg/kg/injection, schedule: Q01DX Z (ip), vehicle: carboxymethylcellulose (CMC)) was 94 % of control, the T/C (endpoint: mean survival time, dose: 22.0 mg/kg/injection, schedule: Q01DX Z (ip), vehicle: carboxymethylcellulose (CMC)) was 107 % of control and the T/C (endpoint: mean survival time, dose: 25.0 mg/kg/injection, schedule: Q01DX009 (ip), vehicle: saline) was 107 % of control. For the same compound, the T/C (endpoint: mean survival time, dose: 30.0 mg/kg/injection, schedule: Q01DX009 (ip), vehicle: saline) was 108 % of control, the T/C (endpoint: mean survival time, dose: 30.0 mg/kg/injection, schedule: Q01DX Z (ip), vehicle: saline) was 116 % of control and the T/C (endpoint: mean survival time, dose: 44.0 mg/kg/injection, schedule: Q01DX009 (ip), vehicle: saline) was 121 % of control. For the same compound, the T/C (endpoint: mean survival time, dose: 45.0 mg/kg/injection, schedule: Q01DX Z (ip), vehicle: saline) was 118 % of control, the T/C (endpoint: mean survival time, dose: 50.0 mg/kg/injection, schedule: Q01DX009 (ip), vehicle: saline) was 109 % of control and the T/C (endpoint: mean survival time, dose: 100.0 mg/kg/injection, schedule: Q01DX009 (ip), vehicle: Klucel (hydroxypropylcellulose) (HPC)) was 95 % of control. The T/C [1] was 104 % of control and 113 % of control, the T/C [2] was 102 % of control and the T/C (endpoint: mean survival time, dose: 150.0 mg/kg/injection, schedule: Q01DX009 (ip), vehicle: saline) was 95 % of control. The T/C (endpoint: mean survival time, dose: 150.0 mg/kg/injection, schedule: Q01DX Z (ip), vehicle: saline) was 104 % of control, the T/C (endpoint: mean survival time, dose: 200.0 mg/kg/injection, schedule: Q01DX009 (ip), vehicle: Klucel (hydroxypropylcellulose) (HPC)) was 104 % of control and the T/C (endpoint: mean survival time, dose: 200.0 mg/kg/injection, schedule: Q01DX009 (ip), vehicle: saline) was 119 % of control and 120 % of control. The T/C [3] was 121 % of control and 124 % of control, the T/C [4] was 118 % of control and the T/C (endpoint: mean survival time, dose: 300.0 mg/kg/injection, schedule: Q01DX Z (ip), vehicle: carboxymethylcellulose (CMC)) was 105 % of control and 115 % of control. For the same compound, the T/C (endpoint: mean survival time, dose: 400.0 mg/kg/injection, schedule: Q01DX009 (ip), vehicle: Klucel (hydroxypropylcellulose) (HPC)) was 121 % of control, the T/C (endpoint: mean survival time, dose: 400.0 mg/kg/injection, schedule: Q01DX009 (ip), vehicle: saline) was 98 % of control and 102 % of control and the T/C (endpoint: mean survival time, dose: 400.0 mg/kg/injection, schedule: Q01DX Z (ip), vehicle: carboxymethylcellulose (CMC)) was 113 % of control. For the same compound, the T/C [5] was 152 % of control and the T/C (endpoint: mean survival time, dose: 500.0 mg/kg/injection, schedule: Q01DX Z (ip), vehicle: carboxymethylcellulose (CMC)) was 110 % of control.
`O=[N+]([O-])c1ccc(C=Nc2cccc3ncccc23)s1` was tested, and the T/C [1] was 95 % of control and the T/C [3] was 93 % of control.
In the case of `COC(=O)C1=C(\O)CCCC/C=C\1C(=O)OC`, the T/C (endpoint: mean survival time, dose: 100.0 mg/kg/injection, schedule: Q04DX002 (ip), vehicle: Klucel (hydroxypropylcellulose) (HPC)) is reported as 87 % of control, the T/C (endpoint: mean survival time, dose: 200.0 mg/kg/injection, schedule: Q04DX002 (ip), vehicle: Klucel (hydroxypropylcellulose) (HPC)) is reported as 97 % of control and the T/C (endpoint: mean survival time, dose: 400.0 mg/kg/injection, schedule: Q04DX002 (ip), vehicle: Klucel (hydroxypropylcellulose) (HPC)) is reported as 107 % of control.
In the case of `CNCCOC(=O)c1cc([N+](=O)[O-])c(C)s1`, the T/C [6] is reported as 94 % of control, the T/C [7] is reported as 103 % of control and the T/C [8] is reported as 100 % of control.
`O=C(Nc1ccc(Cl)c([N+](=O)[O-])c1)OCCOc1ccccc1` was tested, and the T/C (endpoint: mean survival time, dose: 100.0 mg/kg/injection, schedule: Q01DX009 (ip), vehicle: saline with Tween-80) was 101 % of control, the T/C [9] was 110 % of control and the T/C (endpoint: mean survival time, dose: 200.0 mg/kg/injection, schedule: Q01DX009 (ip), vehicle: saline with Tween-80) was 110 % of control. For the same compound, the T/C [10] was 105 % of control, the T/C (endpoint: mean survival time, dose: 400.0 mg/kg/injection, schedule: Q01DX009 (ip), vehicle: saline with Tween-80) was 106 % of control and the T/C [11] was 100 % of control.
`CCC(=O)Nc1cccc(OC(=O)N(C(C)C)C(C)C)c1` was tested, and the T/C [9] was 93 % of control, the T/C [10] was 93 % of control and the T/C [11] was 104 % of control.
For `CC(=O)O[C@H]1[C@H]2O[C@]23[C@@H]2CC[C@@H]4C[C@@H](OC(=O)CCC(=O)O)CC[C@]4(C)[C@H]2CC[C@]3(C)[C@H]1c1ccc(=O)oc1`, the T/C (endpoint: mean survival time, dose: 0.13 mg/kg/injection, schedule: Q01DX009 (ip), vehicle: Klucel (hydroxypropylcellulose) (HPC)) was 100 % of control, the T/C (endpoint: mean survival time, dose: 0.25 mg/kg/injection, schedule: Q01DX009 (ip), vehicle: Klucel (hydroxypropylcellulose) (HPC)) was 97 % of control and the T/C (endpoint: mean survival time, dose: 0.5 mg/kg/injection, schedule: Q01DX009 (ip), vehicle: Klucel (hydroxypropylcellulose) (HPC)) was 93 % of control. The T/C (endpoint: mean survival time, dose: 1.0 mg/kg/injection, schedule: Q01DX009 (ip), vehicle: Klucel (hydroxypropylcellulose) (HPC)) was 110 % of control.
With `CCN(CCCl)Cc1ccc(-c2c3ccccc3cc3c2ccc2ccccc23)cc1` the T/C (endpoint: mean survival time, dose: 78.0 mg/kg/injection, schedule: Q01DX001 (ip), vehicle: carboxymethylcellulose (CMC)) was 90 % of control, the T/C (endpoint: mean survival time, dose: 118.0 mg/kg/injection, schedule: Q01DX001 (ip), vehicle: carboxymethylcellulose (CMC)) was 92 % of control and the T/C (endpoint: mean survival time, dose: 177.0 mg/kg/injection, schedule: Q01DX001 (ip), vehicle: carboxymethylcellulose (CMC)) was 95 % of control.
With `Cc1ccc(/C(=N\N=C(N)N)C2CC2)c(C)c1` the T/C (endpoint: mean survival time, dose: 15.0 mg/kg/injection, schedule: Q01DX Z (ip), vehicle: methylcellulose (MC)) was 89 % of control, the T/C (endpoint: mean survival time, dose: 30.0 mg/kg/injection, schedule: Q01DX Z (ip), vehicle: methylcellulose (MC)) was 98 % of control and the T/C (endpoint: mean survival time, dose: 30.0 mg/kg/injection, schedule: Q01DX Z (oral), vehicle: methylcellulose (MC)) was 103 % of control. The T/C (endpoint: mean survival time, dose: 60.0 mg/kg/injection, schedule: Q01DX Z (ip), vehicle: methylcellulose (MC)) was 95 % of control, the T/C (endpoint: mean survival time, dose: 60.0 mg/kg/injection, schedule: Q01DX Z (oral), vehicle: methylcellulose (MC)) was 97 % of control and the T/C (endpoint: mean survival time, dose: 240.0 mg/kg/injection, schedule: Q01DX Z (oral), vehicle: methylcellulose (MC)) was 86 % of control.
For `Nc1ncnc2nc(N=Nc3ccc(S(N)(=O)=O)cc3)[nH]c12`, the T/C [1] was 108 % of control, the T/C [3] was 102 % of control and the T/C (endpoint: mean survival time, dose: 400.0 mg/kg/injection, schedule: Q04DX003 (ip), vehicle: Klucel (hydroxypropylcellulose) (HPC)) was 100 % of control.
In the case of `COc1ccc(C2=CC(c3ccccc3)C(c3ccccc3)C(=O)N2)cc1` (stereo not drawn), the T/C (endpoint: mean survival time, dose: 6.25 mg/kg/injection, schedule: Q04DX002 (ip), vehicle: saline with Tween-80) is reported as 100 % of control, the T/C (endpoint: mean survival time, dose: 12.5 mg/kg/injection, schedule: Q04DX002 (ip), vehicle: saline with Tween-80) is reported as 100 % of control and the T/C (endpoint: mean survival time, dose: 25.0 mg/kg/injection, schedule: Q04DX002 (ip), vehicle: saline with Tween-80) is reported as 92 % of control.
For `CC(C)C1=CCC(OC(=O)c2ccc(NC(=S)Nc3ccccc3)cc2)CC1` (stereo not drawn), the T/C [9] was 92 % of control, the T/C [10] was 96 % of control and the T/C [11] was 89 % of control.
In the case of `Cc1cc(N(CCCl)CCCl)ccc1N=Nc1ccccc1`, the T/C (endpoint: median survival time, dose: 100.0 mg/kg/injection, schedule: Q01DX009 (ip), vehicle: Klucel (hydroxypropylcellulose) (HPC)) is reported as 98 % of control, the T/C (endpoint: median survival time, dose: 200.0 mg/kg/injection, schedule: Q01DX009 (ip), vehicle: Klucel (hydroxypropylcellulose) (HPC)) is reported as 97 % of control and the T/C (endpoint: median survival time, dose: 400.0 mg/kg/injection, schedule: Q01DX009 (ip), vehicle: Klucel (hydroxypropylcellulose) (HPC)) is reported as 93 % of control.
For `O=C(NC(CSC(c1ccccc1)(c1ccccc1)c1ccccc1)C(=O)O)OCc1ccccc1` (stereo not drawn), the T/C [2] was 105 % of control, the T/C [4] was 100 % of control and the T/C [5] was 105 % of control.
In the case of `COc1ccc([I+]c2ccccc2C(=O)[O-])cc1OC`, the T/C (endpoint: mean survival time, dose: 50.0 mg/kg/injection, schedule: Q01DX001 (ip), vehicle: saline) is reported as 98 % of control, the T/C [6] is reported as 96 % of control and the T/C [7] is reported as 104 % of control. For the same compound, the T/C [8] was 98 % of control.
With `Cc1ccc(C(=O)CCCC(=O)c2ccc(C)cc2)cc1` the T/C (endpoint: mean survival time, dose: 50.0 mg/kg/injection, schedule: Q01DX001 (ip), vehicle: other) was 103 % of control, the T/C (endpoint: mean survival time, dose: 100.0 mg/kg/injection, schedule: Q01DX001 (ip), vehicle: other) was 91 % of control and the T/C (endpoint: mean survival time, dose: 200.0 mg/kg/injection, schedule: Q01DX001 (ip), vehicle: other) was 97 % of control. For the same compound, the T/C (endpoint: mean survival time, dose: 400.0 mg/kg/injection, schedule: Q01DX001 (ip), vehicle: other) was 95 % of control.
`CCOc1ccc(NP(=O)(Oc2c(F)c(F)c(F)c(F)c2F)N(CCCl)CCCl)cc1` (stereo not drawn) was tested, and the T/C (endpoint: mean survival time, dose: 62.5 mg/kg/injection, schedule: Q01DX001 (ip), vehicle: other) was 95 % of control, the T/C (endpoint: mean survival time, dose: 125.0 mg/kg/injection, schedule: Q01DX001 (ip), vehicle: other) was 90 % of control and the T/C (endpoint: mean survival time, dose: 250.0 mg/kg/injection, schedule: Q01DX001 (ip), vehicle: other) was 89 % of control. For the same compound, the T/C (endpoint: mean survival time, dose: 500.0 mg/kg/injection, schedule: Q01DX001 (ip), vehicle: other) was 87 % of control.
With `CCn1cnc2cc(N=Cc3ccc(N(CCCl)CCCl)cc3)ccc21` the T/C (endpoint: mean survival time, dose: 56.3 mg/kg/injection, schedule: Q04DX002 (ip), vehicle: saline) was 106 % of control, the T/C (endpoint: mean survival time, dose: 112.5 mg/kg/injection, schedule: Q04DX002 (ip), vehicle: saline) was 117 % of control and the T/C (endpoint: mean survival time, dose: 225.0 mg/kg/injection, schedule: Q04DX002 (ip), vehicle: saline) was 102 % of control.

Reference: PubChem BioAssay AID248 (DTP/NCI, 2004)
